From patent publication US9193699B2, “Apoptosis inducing compounds” (INSTITUT NATIONAL DE LA SANTE ET DE LA RECHERCHE MEDICALE …, priority 2011, dated 2015)

How the values were obtained:
Type in all cases: cell-based
[1] = tested on: Human breast tumor SUM149 cells; experiment: Inhibition of tumor cell growth (alamar blue), SUM149; details: 120 h, calculated on the basis of cell growth inhibition, day 5, alamar blue, read-out: IC50 for the inhibition of SUM149 tumor cells growth
Method: (§1) All biological experiments (Examples 2 to 9) have been performed with recommended cell line specific culture medium. For SUM149 and L226, culture medium is supplemented with 10% Fetal Calf Serum. For HME-1 and MCF-10A, culture medium is supplemented with 5% Horse Serum.
Human breast tumor SUM149 cells (Inflammatory Breast Cancer (IBC) of basal subtype) were plated in a 96 well plate at 3000 cells/100 μL at 37° C. in 5% CO2. Compounds 1, 3, 4, 5, 6, 7, 8, 9, 10, 11, 12, 13, 14 at 10 μM were added at day 0 and day 3. The number of viable cells was determined in triplicate at day 5 by incubating 10 μL of the alamar blue staining solution for 2 hours at 37° C. (FIG. 1).
(§2) Human breast tumor SUM149 cells were plated in a 96 well plate at 3000 cells/100 μL at 37° C. in 5% CO2. Serial dilutions of drugs (compounds 1, 3 or 4) ranging from 20 μM to 300 nM were added at day 0 and day 3. The number of viable cells was determined in triplicate at day 5 by incubating 10 μL of the alamar blue staining solution for 2 hours at 37° C. (FIG. 2).
IC50 values of compounds 1-14 for the inhibition of SUM149 and L226 tumor cells growth were measured (according to the experimental procedure of Examples 2 and 3):
Human breast tumor SUM149 cells were plated in a 96 well plate at 3000 cells/100 μL at 37° C. in 5% CO2 in recommended medium containing 10% FCS or in synthetic medium without FCS. Serial dilutions of drug (compound 4) ranging from 10 μM to 0.16 μM were added at day 0 and day 3. The number of viable cells was determined in triplicate at day 5 by incubating 10 μL of the alamar blue staining solution for 2 hours at 37° C. (FIG. 11). The […] in recommended medium containing 10% FCS was measured at 2 μM, while it was measured at 0.6 μM without FCS.

[2] = tested on: Human breast tumor L226 cells; experiment: Inhibition of tumor cell growth (alamar blue), L226; details: 120 h, calculated on the basis of cell growth inhibition, day 5, alamar blue
Method: as §1
Human breast tumor L226 cells (Inflammatory Breast Cancer (IBC) of ERB-B2 subtype) were plated in a 96 well plate at 3000 cells/100 μL at 37° C. in 5% CO2. Serial dilutions of drugs (compounds 1, 3 or 4) ranging from 20 μM to 300 nM were added at day 0 and day 3. The number of viable cells was determined in triplicate at day 5 by incubating 10 μL of the alamar blue staining solution for 2 hours at 37° C. (FIG. 3).
IC50 values of compounds 1-14 for the inhibition of SUM149 and L226 tumor cells growth were measured (according to the experimental procedure of Examples 2 and 3): […]

[3] = tested on: Human normal mammary epithelial MCF-10A cells; experiment: Effect on growth of normal cells (alamar blue), MCF-10A; details: calculated on the basis of cell growth inhibition
Method: as §1
as §2, with “normal mammary epithelial MCF-10A” for “breast tumor SUM149”, “5).” for “2).”
(§3) IC50 values of compounds 1-14 for the inhibition of MCF-10A and HME-1 normal cells growth were also measured (according to the experimental procedure of Examples 4 and 5): […]

[4] = tested on: Human normal mammary epithelial HME-1 cells; experiment: Effect on growth of normal cells (alamar blue), HME-1; details: HME1, calculated on the basis of cell growth inhibition
Method: as §1
as §2, with “normal mammary epithelial HME-1” for “breast tumor SUM149”, “4).” for “2).”
as §3

[5] = tested on: caspase-3 and caspase-7 in SUM149 cells; experiment: Caspase 3/7 activation (Caspase-Glo 3/7) in SUM149 tumor cells; details: Homo sapiens, R=RLU at 20 μM/RLU at 0 μM, 24 h, read-out: Caspase 3/7 activation R (RLU fold increase from untreated cells)
Method: (§4) Human breast tumor SUM149 cells were plated in a 96 well plate at 10000 cells/100 μL at 37° C. in 5% CO2. Serial dilutions of drugs (compounds 1, 3 or 4) ranging from 20 μM to 300 nM were added at day 0. Active caspase-3 and caspase-7 were measured in triplicate after 24 h treatment by incubating 50 μL of the Caspase-Glo 3/7 reagent for 60 min at 25° C. This reagent containing the proluminescent tetrapeptide sequence DEVD in a cell lysis buffer (Promega) (FIG. 6).
(§5) Caspase 3/7 activation in SUM149 and L226 tumor cells was measured.
(§6) The calculated values R correspond to Relative Luminescence Units (RLU) fold increase from untreated cells (R=RLU at 20 μM/RLU at 0 μM).

[6] = tested on: caspase-3 and caspase-7 in L226 cells; experiment: Caspase 3/7 activation (Caspase-Glo 3/7) in L226 tumor cells; details: Homo sapiens, R=RLU at 20 μM/RLU at 0 μM, 24 h, read-out: Caspase 3/7 activation R (RLU fold increase from untreated cells)
Method: as §4, with “L226” for “SUM149”, “7).” for “6).”
as §5, §6

[7] = tested on: caspase-3 and caspase-7 in MCF-10A cells; experiment: Caspase 3/7 activation (Caspase-Glo 3/7) in MCF-10A normal cells; details: Homo sapiens, R=RLU at 20 μM/RLU at 0 μM, 24 h, read-out: Caspase 3/7 activation R (RLU fold increase from untreated cells)
Method: as §4, with “normal mammary epithelial MCF-10A” for “breast tumor SUM149”, “9).” for “6).”
as §6
(§7) Caspase 3/7 activation in MCF-10A and HME-1 normal cells was also measured.

[8] = tested on: caspase-3 and caspase-7 in HME-1 cells; experiment: Caspase 3/7 activation (Caspase-Glo 3/7) in HME-1 normal cells; details: Homo sapiens, HME1, R=RLU at 20 μM/RLU at 0 μM, 24 h, read-out: Caspase 3/7 activation R (RLU fold increase from untreated cells)
Method: as §4, with “normal mammary epithelial HME-1” for “breast tumor SUM149”, “8).” for “6).”
as §6, §7

Cancer stem cells (CSCs) = experiment: Aldefluor assay of cancer stem cells (ALDH+ cells), FACS; details: FIG. 12B
Method: Cancer stem cells (CSCs) are thought to contribute to tumor initiation, maintenance, resistance to therapy, and metastasis progression. Treatment with drugs enrich in resistant CSCs. In vitro, breast CSCs express high level of aldehyde dehydrogenase-1 (ALDH1), which can be detected by using a commercial assay (CSCs are “Aldefluor” positive). Briefly, cells were incubated in Aldefluor assay buffer containing ALDH substrate (BAAA (BODIPY®—aminoacetaldehyde), 1 μmol/L per 1×10^6 cells). Negative control was done in the presence of diethylaminobenzaldehyde (DEAB), a specific ALDH inhibitor. Cells were then incubated for 40 min at 37° C. Cells were analyzed with the LSRII flow cytometer (Becton-Dickinson). PI (Propidium Iodide) exclusion was used to gate viable cells.

IC50 [1]	IC50 [2]	SMILES	IC50 [3]	IC50 [4]	fold induction at 20 µM [5]	fold induction at 20 µM [6]	fold induction at 20 µM [7]	fold induction at 20 µM [8]	aldefluor ratio (percent ALDH+ cells treated vs DMSO) (Cancer stem cells (CSCs))
10 µM		CC1(C)SCCN(S(=O)(=O)CC(c2ccccc2)c2ccccc2)[C@H]1C(=O)NO [Compound 9]							
5 µM		Cc1cc(C)cc(S(=O)(=O)N2CCSC(C)(C)[C@@H]2C(=O)NO)c1 [Compound 14, (3S)—N-hydroxy-4-[(3,5-dimethylphenyl)sulfonyl]-2,2-dimethyl-3-thiomorpholine carboxamide]					1.1	1.1	
2.5 µM	3.5 µM	CCCCCCCCCCCCc1ccc(S(=O)(=O)N2CCSC(C)(C)C2C(=O)NO)cc1 [Compound 10, (3S)—N-hydroxy-4-[(4-dodecyl)phenylsulfonyl]-2,2-di methyl-3-thiomorpholine carboxamide]	20 µM	> 20 µM	5.5	8.9	1.1	0.8	
2.5 µM	2.5 µM	CCCc1ccc(S(=O)(=O)N2CCSC(C)(C)[C@@H]2C(=O)NO)cc1 [Compound 13, (3S)—N-hydroxy-4-[(4-propylphenyl)sulfonyl]-2,2-dimethyl-3-thiomorpholine carboxamide]	> 20 µM	> 20 µM	5.4	5.8	1.1	1.2	
2.5 µM	2.5 µM	Cc1cc(C)c(S(=O)(=O)N2CCSC(C)(C)[C@@H]2C(=O)NO)c(C)c1 [Compound 11, (3S)—N-hydroxy-4-[(2,4,6-trimethylphenyl)sulfonyl]-2,2-dimethyl-3-thiomorpholine carboxamide]	20 µM	> 20 µM	6.4	8.7			

More lines, now with the values behind:

SMILES	IC50 [1]	IC50 [2]	IC50 [3]	IC50 [4]	fold induction at 20 µM [5]	fold induction at 20 µM [6]	fold induction at 20 µM [7]	fold induction at 20 µM [8]	aldefluor ratio (percent ALDH+ cells treated vs DMSO) (Cancer stem cells (CSCs))
CC1(C)SCCN(S(=O)(=O)c2ccc(CBr)cc2)[C@H]1C(=O)NO [Compound 5, (3S)—N-hydroxy-4-[(4-bromomethylphenyl)sulfonyl]-2,2-dimethyl-3-thiomorpholine carboxamide]	2.5 µM	20 µM	> 20 µM	> 20 µM	5.5	3.2	1	1.1	
CC1(C)SCCN(S(=O)(=O)c2ccc(C(F)(F)F)cc2)[C@H]1C(=O)NO [Compound 6, (3S)—N-hydroxy-4-[(4-trifluoromethylphenyl)sulfonyl]-2,2-dimethyl-3-thiomorpholine carboxamide]	2.5 µM	5 µM	> 20 µM	> 20 µM	5.9	2.8	1	0.9	
CC1(C)SCCN(S(=O)(=O)c2ccc(F)cc2)[C@H]1C(=O)NO [Compound 7, (3S)—N-hydroxy-4-[(4-fluorophenyl)sulfonyl]-2,2-dimethyl-3-thiomorpholine carboxamide]	20 µM								
CC1(C)SCCN(S(=O)(=O)c2ccccc2)[C@H]1C(=O)NO [Compound 1, (3S)—N-hydroxy-4-(benzenesulfonyl)-2,2-dimethyl-3-thiomorpholine carboxamide]	20 µM	> 20 µM	> 20 µM	> 20 µM	1	1	1	1	
COc1cccc2c1C(=O)c1c(O)c3c(c(O)c1C2=O)C[C@@](O)(C(=O)CO)C[C@@H]3O[C@H]1C[C@H](N)[C@H](O)[C@H](C)O1 [doxorubicin, reference compound]									increases it
